Test results taken from patent US12371428B2 (Exelixis, Inc., priority 2019, dated 2025).

Key:
[1] = target: Met (phospho-Met, HGF-stimulated PC-3 prostate cancer cells) (Homo sapiens (Human), UniProt P08581); test: Met autophosphorylation ELISA in PC-3 cells (Example F); format: cell-based; settings: cellular activity; Met autophosphorylation ELISA in PC-3 cells; read-out: c-Met IC50
Method in brief: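 Sandwich ELISA for phospho-Met (panTyr) in PC-3 lysates. Cells starved 3 h serum-free, compound 1 h (8-pt curve, 0.3% DMSO), HGF 100 ng/mL 10 min. 100% = HGF + DMSO; 0% = HGF + reference inhibitor. IC50 by 4-parameter fit.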

[2] = target: Human MER (residues 528-999) (Homo sapiens (Human), UniProt Q12866); test: Human Mer kinase assay, HTRF KinEase (Example C-2); format: biochemical; settings: protocol of Example C-2 (other compounds)
Human MER (residues 528-999), sequence (Q12866 528-999): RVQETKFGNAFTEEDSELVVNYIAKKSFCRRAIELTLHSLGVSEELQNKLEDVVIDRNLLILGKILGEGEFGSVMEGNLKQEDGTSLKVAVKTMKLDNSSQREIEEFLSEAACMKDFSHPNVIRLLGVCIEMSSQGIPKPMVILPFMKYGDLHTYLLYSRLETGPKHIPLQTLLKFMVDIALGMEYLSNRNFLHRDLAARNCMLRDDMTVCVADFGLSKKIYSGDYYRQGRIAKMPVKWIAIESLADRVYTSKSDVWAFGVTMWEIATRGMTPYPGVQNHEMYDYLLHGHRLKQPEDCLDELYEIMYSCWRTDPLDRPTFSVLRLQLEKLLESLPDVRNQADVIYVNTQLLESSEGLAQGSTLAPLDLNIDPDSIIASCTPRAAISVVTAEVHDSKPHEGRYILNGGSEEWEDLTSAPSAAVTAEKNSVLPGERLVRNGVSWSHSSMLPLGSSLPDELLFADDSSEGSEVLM
Method in brief: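 Recombinant MER 528-999 (1 ng/well) in buffer with 5 mM MgCl2 and 1 mM DTT was reacted with biotinylated peptide and ATP at Km (40 μM) for 60 min at room temperature. EDTA stop with SA-XL665 and Eu3+ TK antibody, then 665/620 nm HTRF read; IC50 from 4-parameter fit.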

[3] = target: Human KDR (residues 790-1356) (Homo sapiens (Human), UniProt P35968); test: Human KDR kinase assay, HTRF KinEase (Example B-2); format: biochemical; settings: protocol of Example B-2 (other compounds)
Human KDR (residues 790-1356), sequence (P35968 790-1356): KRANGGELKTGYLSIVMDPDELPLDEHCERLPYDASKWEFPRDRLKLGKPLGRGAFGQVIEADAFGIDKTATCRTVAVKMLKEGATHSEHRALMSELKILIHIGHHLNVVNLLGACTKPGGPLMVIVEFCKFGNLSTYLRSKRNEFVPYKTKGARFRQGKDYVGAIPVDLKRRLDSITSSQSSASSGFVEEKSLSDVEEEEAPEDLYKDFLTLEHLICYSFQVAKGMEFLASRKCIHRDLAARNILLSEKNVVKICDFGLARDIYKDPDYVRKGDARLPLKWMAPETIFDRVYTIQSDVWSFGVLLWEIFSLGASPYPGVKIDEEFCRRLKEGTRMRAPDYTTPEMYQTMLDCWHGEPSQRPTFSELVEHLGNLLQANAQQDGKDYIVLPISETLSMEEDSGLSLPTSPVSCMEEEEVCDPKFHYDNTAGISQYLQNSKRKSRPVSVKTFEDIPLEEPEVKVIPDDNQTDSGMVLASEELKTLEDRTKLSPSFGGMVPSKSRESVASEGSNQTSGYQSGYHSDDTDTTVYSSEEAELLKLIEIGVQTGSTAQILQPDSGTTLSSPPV
Method in brief: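 Human KDR residues 790-1356 (0.1 ng/well) in buffer with 5 mM MgCl2, 1 mM MnCl2, 1 mM DTT, biotinylated peptide substrate, ATP at Km (4.0 μM), 3% DMSO, 10 compound concentrations; 40 min, room temperature. EDTA stop, streptavidin-XL665/Eu-TK antibody HTRF read 665/620 nm; 4-parameter IC50.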

[4] = target: Human MET (residues 956-1390) (Homo sapiens (Human), UniProt P08581); test: Human Met kinase assay, HTRF KinEase (Example D-2); format: biochemical; settings: protocol of Example D-2 (other compounds); read-out: c-Met IC50
Human MET (residues 956-1390), sequence (P08581 956-1390): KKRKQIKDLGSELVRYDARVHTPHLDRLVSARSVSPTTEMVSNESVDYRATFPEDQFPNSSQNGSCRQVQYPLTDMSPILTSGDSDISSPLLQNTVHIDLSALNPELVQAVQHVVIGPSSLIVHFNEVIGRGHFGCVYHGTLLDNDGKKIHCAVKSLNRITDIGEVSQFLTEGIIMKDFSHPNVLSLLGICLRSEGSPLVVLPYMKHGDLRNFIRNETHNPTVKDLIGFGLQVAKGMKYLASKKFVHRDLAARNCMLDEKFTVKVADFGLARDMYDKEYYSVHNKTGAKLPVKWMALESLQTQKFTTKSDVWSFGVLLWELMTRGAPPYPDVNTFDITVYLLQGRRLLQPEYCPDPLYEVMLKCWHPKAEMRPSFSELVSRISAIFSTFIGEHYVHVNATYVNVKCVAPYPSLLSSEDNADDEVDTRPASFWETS
Method in brief: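 MET kinase domain (956-1390), 0.1 ng/well, in buffer with 5 mM MgCl2, 1 mM DTT and 1 mM MnCl2, phosphorylated a biotinylated peptide at ATP Km for 40 min at RT; 10 concentrations, 3% DMSO final. EDTA-stopped HTRF read after 60 min; IC50 from a 4-parameter logistic fit.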

Met (phospho-Met, HGF-stimulated PC-3 prostate cancer cells), sequence (P08581 25-1390): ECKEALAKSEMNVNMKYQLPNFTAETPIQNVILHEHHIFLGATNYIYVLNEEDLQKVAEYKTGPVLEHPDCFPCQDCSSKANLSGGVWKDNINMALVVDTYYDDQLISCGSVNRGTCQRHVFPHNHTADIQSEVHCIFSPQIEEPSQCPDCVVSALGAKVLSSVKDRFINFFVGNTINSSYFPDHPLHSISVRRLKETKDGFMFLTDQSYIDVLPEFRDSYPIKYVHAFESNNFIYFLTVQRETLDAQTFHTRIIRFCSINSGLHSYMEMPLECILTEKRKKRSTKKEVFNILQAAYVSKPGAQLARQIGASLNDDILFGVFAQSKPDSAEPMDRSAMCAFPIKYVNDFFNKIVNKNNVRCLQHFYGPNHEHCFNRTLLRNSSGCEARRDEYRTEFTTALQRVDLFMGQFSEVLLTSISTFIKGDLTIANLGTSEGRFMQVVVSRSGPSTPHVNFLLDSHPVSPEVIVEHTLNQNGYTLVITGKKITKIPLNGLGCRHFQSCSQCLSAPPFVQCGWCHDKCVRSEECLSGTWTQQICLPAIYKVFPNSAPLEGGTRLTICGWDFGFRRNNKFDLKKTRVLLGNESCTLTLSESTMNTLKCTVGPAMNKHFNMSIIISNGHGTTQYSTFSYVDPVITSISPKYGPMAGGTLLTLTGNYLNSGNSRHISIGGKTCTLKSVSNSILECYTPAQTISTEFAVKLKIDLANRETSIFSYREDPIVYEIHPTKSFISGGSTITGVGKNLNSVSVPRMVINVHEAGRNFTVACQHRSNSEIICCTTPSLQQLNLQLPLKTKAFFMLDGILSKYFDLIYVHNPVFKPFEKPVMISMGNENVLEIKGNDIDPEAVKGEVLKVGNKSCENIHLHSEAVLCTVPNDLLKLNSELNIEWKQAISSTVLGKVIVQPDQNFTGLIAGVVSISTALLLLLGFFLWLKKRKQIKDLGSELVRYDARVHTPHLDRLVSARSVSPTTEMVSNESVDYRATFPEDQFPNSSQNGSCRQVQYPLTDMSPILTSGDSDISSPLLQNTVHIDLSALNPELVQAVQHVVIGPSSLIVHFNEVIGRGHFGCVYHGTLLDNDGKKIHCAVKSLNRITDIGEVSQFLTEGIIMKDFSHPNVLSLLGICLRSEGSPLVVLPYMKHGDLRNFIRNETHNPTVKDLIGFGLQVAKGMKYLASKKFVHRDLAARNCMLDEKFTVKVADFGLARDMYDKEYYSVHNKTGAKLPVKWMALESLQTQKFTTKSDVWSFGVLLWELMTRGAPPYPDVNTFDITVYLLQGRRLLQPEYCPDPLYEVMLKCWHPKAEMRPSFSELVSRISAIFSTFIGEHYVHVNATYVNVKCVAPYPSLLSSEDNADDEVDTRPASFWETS

IC50 [1] [nM]	IC50 [2] [nM]	IC50 [3] [nM]	IC50 [4] [nM]	Structure (SMILES)
< 100	< 100	< 100	< 100	COCCOc1nc2c(Oc3ccc(NC(=O)c4cnc(C)c(-c5ccc(F)cc5)c4O)cc3)ccnc2cc1C [Compound 437, 5-(4-fluorophenyl)-4-hydroxy-N-[4-[[6-(2-methoxyethoxy)-7-methyl-1,5-naphthyridin-4-yl]oxy]phenyl]-6-methylpyridine-3-carboxamide]
< 100	< 100	> 300	100 to 300	C=Cc1cc2nccc(Oc3ccc(NC(=O)c4cnc(C)c(-c5ccc(F)cc5C)c4O)cc3F)c2nc1OC [Compound 423, N-[4-[(7-ethenyl-6-methoxy-1,5-naphthyridin-4-yl)oxy]-3-fluorophenyl]-5-(4-fluoro-2-methylphenyl)-4-hydroxy-6-methylpyridine-3-carboxamide]
< 100	100 to 300	> 300	< 100	COc1cnc2c(Oc3ccc(NC(=O)c4cnc(C)c(-c5c(C)cc(F)cc5C)c4O)cc3F)ccnc2c1 [Compound 417, 5-(4-fluoro-2,6-dimethylphenyl)-N-[3-fluoro-4-[(7-methoxy-1,5-naphthyridin-4-yl)oxy]phenyl]-4-hydroxy-6-methylpyridine-3-carboxamide]
< 100	< 100	> 300	100 to 300	CCOc1c(-c2ccc(F)cc2)cnc(C)c1C(=O)Nc1ccc(Oc2ccnc3cc(OC)c(OC)nc23)c(F)c1 [Compound 403, N-[4-[(6,7-dimethoxy-1,5-naphthyridin-4-yl)oxy]-3-fluorophenyl]-4-ethoxy-5-(4-fluorophenyl)-2-methylpyridine-3-carboxamide]
< 100	< 100	100 to 300	100 to 300	CCc1cc2nccc(Oc3ccc(NC(=O)c4cnc(C)c(-c5ccc(F)cc5)c4O)cc3F)c2nc1OC [Compound 420, N-[4-[(7-ethyl-6-methoxy-1,5-naphthyridin-4-yl)oxy]-3-fluorophenyl]-5-(4-fluorophenyl)-4-hydroxy-6-methylpyridine-3-carboxamide]
< 100	< 100	< 100	< 100	COc1cc2nccc(Oc3ccc(NC(=O)c4ncnc(-c5ccc(F)cc5)c4O)cc3F)c2nc1OC [Compound 96, N-[4-[(6,7-Dimethoxy-1,5-naphthyridin-4-yl)oxy]-3-fluorophenyl]-6-(4-fluorophenyl)-5-hydroxypyrimidine-4-carboxamide]
< 100	< 100	< 100	< 100	COc1cc2nccc(Oc3ccc(NC(=O)c4c(C)n(C)cc(-c5ccc(F)cc5)c4=O)cc3F)c2nc1OC [Compound 81, N-[4-[(6,7-Dimethoxy-1,5-naphthyridin-4-yl)oxy]-3-fluorophenyl]-5-(4-fluorophenyl)-1,2-dimethyl-4-oxopyridine-3-carboxamide]
< 100	< 100	> 300	< 100	COc1cc2nccc(Oc3ncc(NC(=O)c4cn(-c5cnn(C)c5)cc(-c5ccc(F)cc5)c4=O)cc3F)c2cc1OC [Compound 401, N-[6-(6,7-dimethoxyquinolin-4-yl)oxy-5-fluoropyridin-3-yl]-5-(4-fluorophenyl)-1-(1-methylpyrazol-4-yl)-4-oxopyridine-3-carboxamide]
100 to 300	< 100	> 300	< 100	CCn1cc(C(=O)Nc2ccc(Oc3ccnc4cc(O)cnc34)c(F)c2)c(=O)c(-c2ccc(F)cc2)c1C [Compound 410, 1-ethyl-N-[3-fluoro-4-[(7-hydroxy-1,5-naphthyridin-4-yl)oxy]phenyl]-5-(4-fluorophenyl)-6-methyl-4-oxopyridine-3-carboxamide]
< 100	< 100	> 300	< 100	COc1ccc2nccc(Oc3ccc(NC(=O)c4cn(C5CC5)c(C)c(-c5ccc(F)cc5)c4=O)cc3F)c2n1 [Compound 435, 1-cyclopropyl-N-[3-fluoro-4-[(6-methoxy-1,5-naphthyridin-4-yl)oxy]phenyl]-5-(4-fluorophenyl)-6-methyl-4-oxopyridine-3-carboxamide]

More lines, now with the values behind:

Structure (SMILES)	IC50 [1] [nM]	IC50 [2] [nM]	IC50 [3] [nM]	IC50 [4] [nM]
CCn1cc(C(=O)Nc2ccc(Oc3ccnc4cc(OC)c(OC)nc34)c(F)c2)c(=O)c(-c2ccc(F)cc2)c1C [Compound 63, N-[4-[(6,7-Dimethoxy-1,5-naphthyridin-4-yl)oxy]-3-fluorophenyl]-1-ethyl-5-(4-fluorophenyl)-6-methyl-4-oxopyridine-3-carboxamide]	< 100	< 100	< 100	< 100
COc1cc2nccc(Oc3ccc(NC(=O)c4cn(C)c(C#N)c(-c5ccc(F)cc5)c4=O)cc3F)c2nc1OC [Compound 77, 6-Cyano-N-[4-[(6,7-dimethoxy-1,5-naphthyridin-4-yl)oxy]-3-fluorophenyl]-5-(4-fluorophenyl)-1-methyl-4-oxopyridine-3-carboxamide]	< 100	< 100	> 300	< 100
COc1cc2nccc(Oc3ccc(NC(=O)c4cn(C5(C(F)(F)F)CC5)cc(-c5ccc(F)cc5)c4=O)cc3F)c2nc1OC [Compound 59, N-[4-[(6,7-Dimethoxy-1,5-naphthyridin-4-yl)oxy]-3-fluorophenyl]-5-(4-fluorophenyl)-4-oxo-1-[1-(trifluoromethyl)cyclopropyl]pyridine-3-carboxamide]	< 100	< 100	100 to 300	< 100
COc1cc2nccc(Oc3ccc(NC(=O)c4cn(C)c(C)c(-c5ccc(F)cc5C)c4=O)cc3F)c2nc1OC [Compound 75, N-[4-[(6,7-Dimethoxy-1,5-naphthyridin-4-yl)oxy]-3-fluorophenyl]-5-(4-fluoro-2-methylphenyl)-1,6-dimethyl-4-oxopyridine-3-carboxamide]	< 100	< 100	100 to 300	< 100
COc1cc2nccc(Oc3ccc(NC(=O)c4cn(C)c(CF)c(-c5ccc(F)cc5)c4=O)cc3F)c2nc1OC [Compound 73, N-[4-[(6,7-Dimethoxy-1,5-naphthyridin-4-yl)oxy]-3-fluorophenyl]-6-(fluoromethyl)-5-(4-fluorophenyl)-1-methyl-4-oxopyridine-3-carboxamide]	< 100	< 100	100 to 300	< 100
COc1cc2nccc(Oc3ccc(NC(=O)c4cn(-c5cn[nH]c5)cc(-c5ccc(F)cc5)c4=O)cc3F)c2nc1OC [Compound 62, N-[4-[(6,7-Dimethoxy-1,5-naphthyridin-4-yl)oxy]-3-fluorophenyl]-5-(4-fluorophenyl)-4-oxo-1-(1H-pyrazol-4-yl)pyridine-3-carboxamide]	< 100	< 100	> 300	< 100
COc1cc2nccc(Oc3ccc(NC(=O)c4cn(CC(F)(F)F)c(C)c(-c5ccc(F)cc5)c4=O)cc3F)c2nc1OC [Compound 74, N-[4-[(6,7-Dimethoxy-1,5-naphthyridin-4-yl)oxy]-3-fluorophenyl]-5-(4-fluorophenyl)-6-methyl-4-oxo-1-(2,2,2-trifluoroethyl)pyridine-3-carboxamide]	< 100	< 100	< 100	< 100
